± gives the expanded uncertainty stated by the source.
Key:
[1] = 101.33 kPa, Liquid, Alternating current cell with electrodes
[2] = wn = mass fraction of the nth substance listed; conditions: 100 kPa, Liquid, Alternating current cell with electrodes

Row | SMILES | electrical conductivity ([1]; 288.15 K) [S/m] | electrical conductivity ([1]; 293.15 K) [S/m] | electrical conductivity ([1]; 298.15 K) [S/m] | electrical conductivity ([1]; 308.15 K) [S/m] | electrical conductivity ([1]; 323.15 K) [S/m] | electrical conductivity ([2]; 288.15 K, w2 = 1e-05) [S/m] | electrical conductivity ([2]; 288.15 K, w2 = 8e-05) [S/m] | electrical conductivity ([2]; 288.15 K, w2 = 0.00102) [S/m] | electrical conductivity ([2]; 288.15 K, w2 = 0.00885) [S/m] | electrical conductivity ([2]; 293.15 K, w2 = 1e-05) [S/m] | electrical conductivity ([2]; 293.15 K, w2 = 8e-05) [S/m] | electrical conductivity ([2]; 293.15 K, w2 = 0.00102) [S/m] | electrical conductivity ([2]; 293.15 K, w2 = 0.00885) [S/m] | electrical conductivity ([2]; 298.15 K, w2 = 1e-05) [S/m] | electrical conductivity ([2]; 298.15 K, w2 = 8e-05) [S/m] | electrical conductivity ([2]; 298.15 K, w2 = 0.00102) [S/m] | electrical conductivity ([2]; 298.15 K, w2 = 0.00885) [S/m]
1 | CCCCCC[n+]1ccn(C)c1.O=S(=O)([N-]S(=O)(=O)C(F)(F)F)C(F)(F)F | 0.135 ± 0.02 | 0.173 ± 0.02 | 0.218 ± 0.02 | 0.327 ± 0.02 | 0.546 ± 0.02 |  |  |  |  |  |  |  |  |  |  |  | 
2 | CCn1cc[n+](C)c1.O=S(=O)([N-]S(=O)(=O)C(F)(F)F)C(F)(F)F | 0.644 ± 0.02 | 0.773 ± 0.02 | 0.912 ± 0.02 | 1.23 ± 0.02 | 1.79 ± 0.02 |  |  |  |  |  |  |  |  |  |  |  | 
3 | CCCCn1cc[n+](C)c1.F[P-](F)(F)(F)(F)F [1-butyl-3-methylimidazolium hexafluorophosphate] | 0.079 ± 0.02 | 0.109 ± 0.02 | 0.146 ± 0.02 | 0.247 ± 0.02 | 0.477 ± 0.02 |  |  |  |  |  |  |  |  |  |  |  | 
4 | CCCC[n+]1ccn(C)c1.O=S(=O)([N-]S(=O)(=O)C(F)(F)F)C(F)(F)F + O |  |  |  |  |  | 0.265 ± 0.02 | 0.266 ± 0.02 | 0.277 ± 0.02 | 0.365 ± 0.021 | 0.331 ± 0.02 | 0.332 ± 0.02 | 0.345 ± 0.02 | 0.449 ± 0.021 | 0.406 ± 0.02 | 0.408 ± 0.02 | 0.422 ± 0.02 | 0.542 ± 0.022
5 | CCCC[n+]1ccn(C)c1.O=S(=O)([N-]S(=O)(=O)C(F)(F)F)C(F)(F)F | 0.265 ± 0.02 | 0.331 ± 0.02 | 0.406 ± 0.02 | 0.585 ± 0.02 | 0.924 ± 0.02 |  |  |  |  |  |  |  |  |  |  |  | 

Source: the NIST ThermoML archive (doi:10.1016/j.jct.2005.04.009)
